pKi: −log10 of the molar value.
Legend:
[1] = target: T1, purified LasB protein from P. aeruginosa (Pseudomonas aeruginosa, UniProt P14756); assay: Fluorometric assay to determine Ki (Abz-Ala-Gly-Leu-Ala-p-Nitro-Benzyl-Amide substrate); format: biochemical
T1 construct: purchased Merck or Charles River Laboratories
In short: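 Purified P. aeruginosa LasB (10–140 ng/ml) with 250 µM Abz-Ala-Gly-Leu-Ala-p-nitrobenzylamide in 50 mM Tris-HCl pH 7.4, 2.5 mM CaCl2, 0.01% Triton X100, 37 °C; hydrolysis fluorescence (Ex 340/Em 415 nm) followed over 30 min, inhibitor 0.0016–200 µM. Ki = IC50/(1+[S]/Km), Km 214 µM.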

LasB = target: T2, LasB (Pseudomonas aeruginosa, UniProt P14756); assay: Elastin assay to determine % inhibition (Elastin Congo-Red, dialysed culture supernatant); format: biochemical, P. aeruginosa PAO1; settings: read-out: Elastin hydrolysis % inhibition @ 50 / 25 µM inhibitor concentration
T2 construct: uses as source of enzyme dialysed supernatant from P. aeruginosa PAO1; endogenous in cells; host or cells: P. aeruginosa PAO1 culture supernatant, filtered and dialysed
T2 sequence (P14756 198-498): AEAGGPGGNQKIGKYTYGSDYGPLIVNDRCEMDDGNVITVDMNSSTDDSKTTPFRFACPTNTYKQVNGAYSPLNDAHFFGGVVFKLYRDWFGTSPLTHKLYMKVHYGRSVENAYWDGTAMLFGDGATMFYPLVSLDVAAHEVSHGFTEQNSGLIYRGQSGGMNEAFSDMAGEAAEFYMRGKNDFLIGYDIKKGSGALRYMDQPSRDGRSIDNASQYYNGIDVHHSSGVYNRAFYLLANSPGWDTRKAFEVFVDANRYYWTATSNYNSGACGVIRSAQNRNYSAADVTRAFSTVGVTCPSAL
Procedure: Experiments were therefore conducted (1) to measure the potency of inhibition of compounds of the invention against purified Pseudomonas aeruginosa LasB enzyme and also experiments were conducted (2) to measure the ability of compounds of the invention to inhibit LasB-catalysed elastin degradation. The first assay uses a commercial fluorescent synthetic peptide and purified LasB enzyme. The LasB hydrolysis kinetics are measured allowing the determination of the IC50 and Ki of the inhibitors; the second is a more physiological assay using dialysed Pseudomonas aeruginosa supernatant as source of enzyme, plus its natural substrate Elastin. It is an "end point assay" that determines the percentage of LasB inhibition by each compound for one particular time point and inhibitor concentration. Technical details are described below:
The Elastin assay uses as source of enzyme dialysed supernatant from P. aeruginosa PAO1 and the Elastin Congo-Red as substrate. The natural LasB substrate, elastin, is complexed with the congo-red dye (Elastin Congo-Red, ECR). The elastolysis activity from the culture supernatant will degrade elastin and release the congo-red dye into the supernatant. This red dye release can be measured with a spectrophotometer.
Method: To determine LasB elastase activity and assess compound inhibition, an overnight culture of P. aeruginosa strain PAO1 is diluted in LB medium. After reaching an OD600nm of 0.6, this culture is diluted and incubated for additional 18-24 hours in a shaking incubator. Culture supernatants are recovered by centrifugation and filtrated through a […] filter. These supernatants are dialysed (filtration molecules < 20kDa) into a 50 mM Tris-HCl pH 7.4, 2.5 mM CaCl2 solution at 4°C under agitation for 24 hours. Supernatant dialysed is then mixed volume/volume with the ECR suspension (20 mg/mL of ECR in 100 mM Tris-HCl pH 7.4 buffer supplemented with 1 mM CaCl2) supplemented with Triton X100 (final concentration of 0.01%) in presence of DMSO (positive control) and/or different concentrations of compound (routinely 50 to 1.56 µM). As a negative control, the dialysed supernatant is replaced by Tris-HCl solution (50 mM Tris-HCl pH 7.4, 2.5 mM CaCl2). The mixed reaction is then incubated overnight in a 37°C shaking incubator. The reaction supernatant is recovered by centrifugation and the release of congo-red is measured by its absorbance at 495 nm (OD495nm).
Percentage inhibition is determined using the following equation: ((OD495nmvalue of positive control−OD495nmvalue of negative control)−(OD495nmvalue of treated supernatant−OD495nmvalue of positive control))/(OD495nmvalue of positive control−OD495nmvalue of negative control) × 100. [formula]

T1 sequence (P14756 198-498): as above

SMILES | pKi [1] | inhibition at 25 µM (LasB) [%]
COc1cc(OCC(=O)N2CCN(C)CC2)ccc1-c1csc(CNC(=O)C2(CC(=O)O)Cc3ccccc3C2)n1 [Example 63, 2-[2-[[4-[2-methoxy-4-[2-(4-methylpiperazin-1-yl)-2-oxo-ethoxy]phenyl]thiazol-2-yl]methylcarbamoyl]indan-2-yl]acetic acid] | 6.70 to 7.30 | > 75
COc1cc(OCC(=O)N2CC([N+](C)(C)C)C2)ccc1-c1csc(CNC(=O)C2(CC(=O)[O-])Cc3cc(F)c(F)cc3C2)n1 [Example 64, 2-[5,6-difluoro-2-[[4-[2-methoxy-4-[2-oxo-2-[3-(trimethylammonio)azetidin-1-yl]ethoxy]phenyl]thiazol-2-yl]methylcarbamoyl]indan-2-yl]acetate] | 6.70 to 7.30 | 60 to 75
COc1cc(OCC[N+]2(C)CCOCC2)ccc1-c1csc(CNC(=O)C2(CC(=O)[O-])Cc3ccccc3C2)n1 [Example 67, 2-[2-[[4-[2-methoxy-4-[2-(4-methylmorpholin-4-ium-4-yl)ethoxy]phenyl]thiazol-2-yl]methylcarbamoyl]indan-2-yl] acetate] | 6.70 to 7.30 | 60 to 75
COc1cc(OCC[N+]2(C)CCOCC2)ccc1-c1csc(CNC(=O)C2(CC(=O)[O-])Cc3cc(F)c(F)cc3C2)n1 [Example 68, 2-[5,6-difluoro-2-[[4-[2-methoxy-4-[2-(4-methylmorpholin-4-ium-4-yl)ethoxy]phenyl]thiazol-2-yl]methylcarbamoyl]indan-2-yl]acetate] | 6.70 to 7.30 | 60 to 75
COc1cc(OCCC[N+]2(C)CCOCC2)ccc1-c1csc(CNC(=O)C2(CC(=O)[O-])Cc3ccccc3C2)n1 [Example 69, 2-[2-[[4-[2-methoxy-4-[3-(4-methylmorpholin-4-ium-4-yl)propoxy]phenyl]thiazol-2-yl]methylcarbamoyl]indan-2-yl]acetate] | 6.70 to 7.30 | 10 to 60
COc1cc(OCCC[N+]2(C)CCOCC2)ccc1-c1csc(CNC(=O)C2(CC(=O)[O-])Cc3cc(F)c(F)cc3C2)n1 [Example 70, 2-[5,6-difluoro-2-[[4-[2-methoxy-4-[3-(4-methylmorpholin-4-ium-4-yl)propoxy]phenyl]thiazol-2-yl]methylcarbamoyl]indan-2-yl]acetate] | 6.70 to 7.30 | 60 to 75
COc1cc(OCCCN2CCOCC2)ccc1-c1csc(CNC(=O)C2(CC(=O)O)Cc3ccccc3C2)n1 [Example 71, 2-[2-[[4-[2-methoxy-4-(3-morpholinopropoxy)phenyl]thiazol-2-yl]methylcarbamoyl]indan-2-yl]acetic acid] | > 7.30 | > 75
COc1cc(OCCCN2CCCC2)ccc1-c1csc(CNC(=O)C2(CC(=O)O)Cc3cc(F)c(F)cc3C2)n1 [Example 72, 2-[5,6-difluoro-2-[[4-[2-methoxy-4-(3-pyrrolidin-1-ylpropoxy)phenyl]thiazol-2-yl]methylcarbamoyl]indan-2-yl]acetic acid] | > 7.30 | 10 to 60
COc1cc(OCCC[N+]2(C)CCCC2)ccc1-c1csc(CNC(=O)C2(CC(=O)[O-])Cc3cc(F)c(F)cc3C2)n1 [Example 73, 2-[5,6-difluoro-2-[[4-[2-methoxy-4-[3-(1-methylpyrrolidin-1-ium-1-yl)propoxy]phenyl]thiazol-2-yl]methylcarbamoyl]indan-2-yl)acetate] | 6.70 to 7.30 | 60 to 75
COc1cc(OCc2ccncc2)ccc1-c1csc(CNC(=O)C2(CC(=O)O)Cc3ccccc3C2)n1 [Example 74, 2-[2-[[4-[2-methoxy-4-(4-pyridylmethoxy)phenyl]thiazol-2-yl]methylcarbamoyl]indan-2-yl]acetic acid] | > 7.30 | > 75
COc1cc(OCc2cc[n+](C)cc2)ccc1-c1csc(CNC(=O)C2(CC(=O)[O-])Cc3ccccc3C2)n1 [Example 75, 2-[2-[[4-[2-methoxy-4-[(1-methylpyridin-1-ium-4-yl)methoxy]phenyl]thiazol-2-yl]methylcarbamoyl]indan-2-yl]acetate] | 6.70 to 7.30 | 60 to 75

From EP3628672A1 (priority 2018, dated 2020)
